In a melting point compilation (Tetko et al.; mined from patent text by program, amines drawn as free bases though some values may be those of a salt) one finds melting point data, which are given here for 87 compounds.

For orientation: melting point means the temperature of the solid-liquid transition.

Structures are written as SMILES. A value given as a limit tells only on which side of the number the result lay.

The compound `O=C(NC(=O)c1c(Cl)cccc1Cl)Nc1ccc(F)c(C(F)(F)F)c1Cl` registered a melting point of 227 to 230 °C.

As for `O=[N+]([O-])c1ccc(Cl)cc1NC12CC3CC(CC(C3)C1)C2`, the melting point is 146 °C.

`COC(=O)OC(C(=O)O)c1ccccc1` (configuration not stated) displayed a melting point of 103 to 105 °C.

For `CCCCCC1Cc2cc(OCC(=O)O)c(Cl)c(Cl)c2C1=O` (configuration not stated), the melting point was in the range of 192 to 195 °C.

Compound `CCC1CC(=O)N(Cc2ccc(C(=O)NC3CCCC3)cc2)N=C1c1ccc(OC)c(OC2CCCC2)c1` (configuration not stated) displayed a melting point of 73 °C.

For the compound `O=c1[nH]c2ccccc2n1CCCCCCN1CCN(C(c2ccccc2)c2ccccc2)CC1`, the melting point was 190 °C.

Take `O=C(O)c1cccc(OCCF)c1OCCF`: the melting point fell in the range of 104 to 105 °C.

As for `Cc1cccc(/C=C/C(=O)Nc2cccc(NC(=N)c3ccccc3)c2)c1`, the melting point was 179 to 180 °C.

As for `O=C(O)Cc1c(Cl)nc(-c2cccc(O)c2)n1Cc1ccccc1`, the melting point was 220 to 222 °C.

The compound `Cn1cncc1C(N)(c1ccc([N+](=O)[O-])cc1)c1ccc2c(c1)c(-c1cccc(Cl)c1)cc(=O)n2C` (configuration not stated) yielded a melting point of 258 °C.

With `CCOC(=O)c1c(CCBr)nc2cc(OC)c(OC)cc2c1-c1ccc(OC)c(OC)c1`, the melting point was 132 to 133 °C.

For `CNC(=O)N1CC(Oc2cccc(Br)c2)C1`, the melting point lay in the range of 134 to 135 °C.

As to `CCOc1ccc(C(=O)OC)c(Cl)n1`, the melting point lay within 46 to 48 °C.

Turning to `O=C(CCCC(=O)c1ccccc1)NC1CCN(Cc2ccc(Cl)c(Cl)c2)CC1`, the melting point amounted to 130 °C.

`O=C(Nc1ccc([N+](=O)[O-])cc1)N[C@H]1C[C@H](C(=O)O)Nc2cc(Cl)cc(Cl)c21` (relative stereo): the melting point was in the range of 185 to 186 °C.

`O=C(O)Cc1cc(Cl)cc(Cl)c1Cl` had a melting point of 125 to 133 °C.

Compound `CCc1cn(C2CC(O)C(CO)O2)c(=O)nc1NC(=O)c1ccccc1` (configuration not stated) showed a melting point of 172 to 174 °C.

`CC(C)(C)OC(=O)NCc1nc(C(=O)ON2C(=O)CCC2=O)cs1`: the melting point turned out to be 171 °C.

Turning to `CCCn1nc(Cc2ccc(-c3ccccc3-c3nnn(C(c4ccccc4)(c4ccccc4)c4ccccc4)n3)cc2)c(C(=O)OCC)c1C(C)C`, the melting point lay in the range of 158 to 159 °C.

As for `CC1(C)N=C(c2ccccc2)C(c2ccc(N)cc2)O1` (configuration not stated), the melting point lay in the range of 162 to 163 °C.

`O=C(O)c1ccc(C(Cl)=C(Cl)Cl)cn1`: the melting point lay within 158 to 159 °C.

Consider `CN(C)C(=O)c1ccc(N)cc1S(=O)(=O)NC(C)(C)C`, for which the melting point lay within 205 to 208 °C.

As for `CC(C)(C)C1c2ccccc2-c2ccccc2N1S(=O)(=O)c1ccc(O)cc1` (configuration not stated), the melting point was 187 to 189 °C.

The compound `CC(=O)Nc1ccc(OC(=O)c2ccc(COC(=O)OC(C)O[N+](=O)[O-])cc2)cc1` (configuration not stated) displayed a melting point of 149 to 152 °C.

For `CCCCCCCCCC(=O)Oc1ccc2c(N3CCN(CCCC(=O)c4ccc(F)cc4)CC3)noc2c1`, the melting point lay within 69 to 71 °C.

As for `CCOC(=O)CCCn1c(Nc2cnc(OC)cc2C)nc2c(Cl)ccc(C(CC)CC)c21`, the melting point was 140 to 142 °C.

Compound `COC(=O)c1cc(-c2cccc(C(F)(F)F)c2)c(=O)n2ccccc12` registered a melting point of 147 to 148 °C.

With `O=C(Nc1cccc(OC(F)(F)F)c1)Nc1ccccc1CCO`, the melting point lay within 160 to 161 °C.

`COc1ccc(CNC(=O)c2cc([N+](=O)[O-])ccc2N)cc1` displayed a melting point of 189 to 191 °C.

Turning to `CCOc1nc(-c2ccc(OC)c(OC)c2)cc(=Nc2c(C)cc(C)cc2C)n1C`, the melting point was 116 to 119 °C.

In turn, `CSC(Nc1ccc(NC(=O)OC(C)(C)C)cc1)=C(C#N)C#N` had a melting point of 190 °C.

In turn, `O=C(O)[C@H](Cc1cccc(OC(F)(F)C(F)F)c1)[C@@H](O)c1ccnc(F)c1` (racemic) displayed a melting point of 134 to 135 °C.

In turn, `COc1cc(C(C)=O)cc(OC)c1O[Si](C)(C)C(C)(C)C` had a melting point of 90 to 92 °C.

`CN(C)C1(c2ccccc2)CCC(CNC(=O)CCCCCc2c[nH]c3ccc(F)cc23)CC1` (configuration not stated) had a melting point of 52 to 54 °C.

Compound `COc1ccc(Cc2ccc3[nH]c(=S)[nH]c3c2)cc1OC` came in with a melting point of 248 to 250 °C.

Take `CNC(=S)NCc1cc(-c2ccc(Cl)cc2)no1`: the melting point was found to be 135 °C.

`O=C(Nc1ccc2cc(CN3CCCC3)cnc2c1)c1ccc(-c2ccccc2)cc1F` gave a melting point of 166 °C.

Turning to `O=Cc1c(C2CC2)nc2ccccc2c1-c1ccc(F)cc1`, the melting point is 152 °C.

Turning to `Cc1cccc2c1C(=O)N(C)Cc1c(C#CC(C)(C)O)ncn1-2`, the melting point lay in the range of 165 to 167 °C.

Consider `CN1CCC2(C)c3cc(C(=O)C(=O)OCc4ccccc4)ccc3N(C)C12` (configuration not stated), for which the melting point was in the range of 53 to 57 °C.

`COC(=O)c1cc(Br)c(Br)o1` had a melting point of 56 to 57 °C.

For `CC(=O)N1CCc2ccc(S(=O)(=O)C(F)(F)F)cc2C1`, the melting point was in the range of 199 to 200 °C.

For `COc1cc2c(c3c1OC(C)(C)C3)C(c1cccc(C(N)=O)c1)=NCC2(C)C`, the melting point lay in the range of 191 to 193 °C.

The compound `O=Cc1cc(I)ccc1O` came in with a melting point of 99 to 101 °C.

Compound `O=C1CCC(N2Cc3c(OCc4cc(Cl)ccc4Cl)cccc3C2=O)C(=O)N1` (configuration not stated) gave a melting point of 256 to 258 °C.

`O=C(O)Cc1c(C(=O)c2cccc(Br)c2)[nH]c2cc(Cl)ccc12` yielded a melting point of 215 to 218 °C.

Regarding `O=c1[nH]c2ccc(Cl)cc2n1C1CCNCC1`, the melting point is above 300 °C.

In turn, `NC(=O)c1cncc(N)c1` came in with a melting point of 263 to 264 °C.

The compound `CCC(=O)N(C)c1cccc(-c2ccnc3c(C(=O)c4ccco4)cnn23)c1` yielded a melting point of 153 to 155 °C.

In turn, `CN(C)CCOc1cccc(C=CC(=O)N2CCc3c([nH]c4ccccc34)C2c2ccc3c(c2)OCO3)c1` (configuration not stated) came in with a melting point of 76 to 78 °C.

In turn, `O=C1CCOc2ccc(OCc3ccc4ccccc4n3)cc21` came in with a melting point of 112 to 114 °C.

For `CC1CC(=O)Nc2ncc3c(c21)CCCN3` (configuration not stated), the melting point lay within 309 to 311 °C.

Take `CCC(=Nc1ccc2c(c1)C(=O)c1ccc(N=C(CC)N3CCCCC3)cc1C2=O)N1CCCCC1`: the melting point was 183 to 185 °C.

The compound `CC(C)n1c(=O)n(C(=O)NCC2(O)CCN(CC3(C(=O)O)CCCCC3)CC2)c2ccccc21` registered a melting point of 184 °C.

Compound `CS(=O)(=O)c1ccc(C2=C(c3ccccc3)C(=NOCc3ccccc3)C2)cc1` registered a melting point of 148 to 150 °C.

`CCOC(=O)C1=CC2(CCC1S(=O)(=O)Nc1ccc(F)cc1Cl)OC(CC)C(CC)(CC)O2` (configuration not stated): the melting point lay in the range of 124 to 126 °C.

Take `CC1=Nc2ccc(-c3sc(C#N)cc3C)cc2C2(CCCC2)O1`: the melting point was in the range of 58 to 60 °C.

`CC(C)c1ccc(-n2cc(C#N)cc2N)c(Br)c1` returned a melting point of 106 °C.

`CC(CSc1cc(C(C)(C)C)c(O)c(C(C)(C)C)c1)N(O)C(N)=O` (configuration not stated): the melting point was 65 to 66 °C.

The compound `CCN1CCCC1CNC(=O)c1cc(S(=O)(=O)N(C)C)cc2c1OCCO2` (configuration not stated) showed a melting point of 146 to 148 °C.

`C[C@@H]1Cc2ccsc2[C@H](C)N1CCNC(=O)c1ccccc1N` (relative stereo) displayed a melting point of 89 to 94 °C.

For `CCOC(=O)C1(C(=O)OCC)CCC2(NCCc3cc(OC)c(OC)cc32)C(C2=NCCc3cc(OC)c(OC)cc32)C1` (configuration not stated), the melting point was 116 to 118 °C.

Take `CCCCCCc1ccc2c(c1)c1cc(CCCCCC)ccc1n2CCN`: the melting point was 56 °C.

In the case of `CCCCc1ncc(/C=C(\Cc2cccs2)C(=O)O)n1Cc1cccc(OC)c1`, the melting point was in the range of 170 to 171 °C.

Regarding `CN1CCC(=C2c3ccc(F)cc3Sc3ccc(F)cc32)CC1`, the melting point lay within 120 to 123 °C.

In turn, `C[C@@H]1S[C@@H](C(=O)Nc2ccc(CN3CCSC3)cc2)Cc2cc3c(cc2C1=O)OCO3` registered a melting point of 179 to 181 °C.

As for `CSc1ccc2[nH]c(=O)n(CCN3CCC(Nc4nc5ccccc5n4Cc4ccc(F)cc4)CC3)c(=O)c2c1`, the melting point was 238 °C.

Compound `CC(C)[C@@H]1CC[C@@H](C)C[C@H]1OC(=O)NCCC(C)n1cnc2c(N)nc3ccccc3c21` (some centres not stated) came in with a melting point of 84 to 86 °C.

As to `CN(C)NC(=O)c1sc(Nc2ccccc2)c2c1CCc1cnoc1-2`, the melting point was in the range of 179 to 180 °C.

With `COC(=O)c1cccc(OS(=O)(=O)C(F)(F)F)c1O`, the melting point lay in the range of 91.8 to 92.3 °C.

`CCOC(=O)C1=C(C)NC(C)=C(C(=O)OCCN2CCN(C(c3ccccc3)c3ccccc3)CC2)C1c1cccc(Cl)c1` (configuration not stated) displayed a melting point of 72 to 75 °C.

The compound `CCCCCCCCCc1ccc(-c2nc(C)c(C(C)=NNC(=N)N)s2)cc1` registered a melting point of 203 to 206 °C.

`COCCc1nc2c(N)nc3ccccc3c2n1CCCCCC(=O)N1CCOCC1` returned a melting point of 131 to 132 °C.

For `O=C(O)C1CSC(=S)N1` (configuration not stated), the melting point was in the range of 183 to 184 °C.

As for `O=C(O)COc1c(-c2ccccc2)c(=O)[nH]c2cc(Cl)ccc12`, the melting point was in the range of 269 to 272 °C.

`O=C(/C=C/c1cccc(C(F)(F)F)c1)NC1CC1` returned a melting point of 98 °C.

Regarding `COc1cccc(CC(=O)O)c1OCCCc1cn(-c2ccccn2)nc1C(C)C`, the melting point fell in the range of 102 to 104 °C.

In the case of `CC1(C)CC(=O)C1(Br)CC(Br)(Br)Br` (configuration not stated), the melting point lay within 61 to 63 °C.

In turn, `O=c1c2ccc(Cl)cc2[nH]c2c(O)nn(Cc3cccc(-c4nnn[nH]4)c3)c(=O)c12` registered a melting point above 275 °C.

For the compound `O=C(CCN1CCN(c2cccc(Cl)c2Cl)CC1)N1CCc2ccccc21`, the melting point is 157 to 158 °C.

Regarding `CCCCOc1nc(N)c2nc(OC)n(CCSc3cccc(CC(=O)O)c3)c2n1`, the melting point lay in the range of 205 to 207 °C.

`NC(=O)c1nc2n(n1)-c1ccc(Cl)cc1C(c1ccccc1)=NC2` registered a melting point of 252 to 254 °C.

Take `CN(C(=O)c1cc2ccccc2[nH]1)C1N=C(c2ccccc2)c2ccccc2NC1=O` (racemic): the melting point was 287 to 288 °C.

`Cc1ccccc1C(=O)Nc1ccc(-n2nc(C3CC3)cc2C2CC2)c(F)c1` yielded a melting point of 105 to 107 °C.

As for `NC(=O)C1(c2c(F)cccc2F)CC1`, the melting point is 137 to 138 °C.

As to `O=C(O)CCCC(=O)N1CCC(C2c3ccccc3C=Cc3ccccc32)CC1`, the melting point lay within 180 to 186 °C.

The compound `CC(C)OC(=O)N1CCC(c2nc3cc(-c4ccc(C=O)cc4)ccc3o2)CC1` gave a melting point of 167 to 170 °C.
